Test results: patent US7981883B2, “Substituted spiro-compounds and the use thereof for producing medicaments” (Gruenenthal GmbH, priority 2005, dated 2011)

Tests used:
Assay type in all cases: cell-based
VR1 (human) = target: T1, VR1 (human) (Homo sapiens, UniProt Q8NER1); test: Functional FLIPR Ca2+ inflow assay on VR1 (human), CHO K1 cells stably transfected with the VR1 gene; conditions: test compound 10 μM; for VR1 (human) (% inhibition compared to 10 μM CP) / inhibition at 10 µM: then 100 nM capsaicin after 5 min, relative to maximum inhibition with 10 μM capsaicin; for VR1 (human) (% stimulation compared to 10 μM CP) / activation at 10 µM: Ca2+ signal relative to 10 μM capsaicin (CP); for inhibition at 10 µM / activation at 10 µM: CHO-K1; for inhibition at 10 µM: read-out: VR1 (human) (% inhibition compared to 10 μM CP); for activation at 10 µM: read-out: VR1 (human) (% stimulation compared to 10 μM CP)
T1 construct: expressed in transfected cells; host or cells: CHO K1 cells (ECACC)
Description: II. Functional Testing Carried Out on the Vanilloid Receptor (VR1)
The agonistic or antagonistic effect of the substances to be tested can also be determined on the vanilloid receptor (VR1) using the following assay. According to this assay, the Ca^2+ inflow is quantified through the channel using a Ca^2+-sensitive dye (type Fluo-4, Molecular Probes Europe BV, Leiden, Netherlands) in a fluorescent imaging plate reader (FLIPR, Molecular Devices, Sunnyvale, USA).
Chinese hamster ovary cells (CHO K1 cells, European Collection of Cell Cultures (ECACC) United Kingdom) were stably transfected with the VR1 gene. For functional testing, these cells were plated out on poly-D-lysine-coated black 96 well plates having a clear base (BD Biosciences, Heidelberg, Germany) at a density of 25,000 cells/well. The cells were incubated overnight at 37° C. and 5% CO2 in a culture medium (Ham's F12 nutrient mixture, 10% by volume of FCS (foetal calf serum), 18 μg/ml L-proline). The next day the cells were incubated with Fluo-4 (Fluo-4 2 μM, 0.01% by volume of Pluronic F127, Molecular Probes in HBSS (Hank's buffered saline solution), Gibco Invitrogen GmbH, Karlsruhe, Germany) for 30 minutes at 37° C. Subsequently, the plates were washed three times with HBSS buffer and after further incubation for 15 minutes at room temperature used for Ca^2+ measurement in a FLIPR assay. The Ca^2+-dependent fluorescence was measured before and after the addition of the substances to be tested (λex wavelength=488 nm, λem=540 nm). Quantification was carried out by measuring the highest fluorescence intensity (FC, Fluorescence Counts) over time.
The FLIPR protocol consists of 2 substance additions. First the compounds to be tested (10 μM) were pipetted onto the cells and the Ca^2+ inflow was compared with the control (capsaicin 10 μM) (% activation based on the Ca^2+ signal after the addition of 10 μM capsaicin). After 5 minutes' incubation, 100 nM of capsaicin were administered and the Ca^2+ inflow was also determined.
Desensitising agonists and antagonists led to suppression of the Ca^2+ inflow. The % inhibition was calculated compared to the maximum achievable inhibition with 10 μM of capsaicin.

VR1 (rat) [1] = target: T2, VR1 (rat) (Rattus norvegicus, UniProt O35433); test: Functional FLIPR Ca2+ inflow assay on rat-species vanilloid receptor 1 in rat dorsal root ganglia cells; conditions: test compound 10 μM; for VR1 (rat) (% inhibition compared to 10 μM CP) / inhibition at 10 µM: then 100 nM capsaicin after 5 min, relative to maximum inhibition with 10 μM capsaicin; for VR1 (rat) (% stimulation compared to 10 μM CP) / activation at 10 µM: Ca2+ signal relative to 10 μM capsaicin (CP); for inhibition at 10 µM: read-out: VR1 (rat) (% inhibition compared to 10 μM CP); for activation at 10 µM: read-out: VR1 (rat) (% stimulation compared to 10 μM CP)
T2 construct: from tissue; host or cells: primary cells dissociated from rat dorsal root ganglia
Description: I. Functional Testing Carried Out on the Vanilloid Receptor 1 (VR1/TRPV1 Receptor)
The agonistic or antagonistic effect of the substances to be tested can be determined on the rat-species vanilloid receptor 1 (VR1/TRPV1) using the following assay. According to this assay, the Ca^2+ inflow is quantified through the receptor channel using a Ca^2+-sensitive dye (type Fluo-4, Molecular Probes Europe BV, Leiden, Netherlands) in a fluorescent imaging plate reader (FLIPR, Molecular Devices, Sunnyvale, USA).
Complete medium: 50 mL HAMS F12 nutrient mixture (Gibco Invitrogen GmbH, Karlsruhe, Germany) with
10% by volume of FCS (foetal calf serum, Gibco Invitrogen GmbH, Karlsruhe, Germany, […]);
2 mM L-glutamine (Sigma, Munich, Germany);
1% by weight of AA solution (antibiotic/antimyotic solution, PAA, Pasching, Austria) and 25 ng/ml NGF medium (2.5 S, Gibco Invitrogen GmbH, Karlsruhe, Germany)
Cell culture plate: Poly-D-lysine-coated, black 96 well plates having a clear base (96 well black/clear plate, BD Biosciences, Heidelberg, Germany) were additionally coated with laminin (Gibco Invitrogen GmbH, Karlsruhe, Germany), the laminin being diluted with PBS (Ca—Mg-free PBS, Gibco Invitrogen GmbH, Karlsruhe, Germany) to a concentration of 100 μg/mL. Aliquots having a laminin concentration of 100 μg/mL were removed and stored at −20° C. The aliquots were diluted with PBS in a ratio of 1:10 to 10 μg/mL laminin and in each case 50 μL of the solution were pipetted into a recess in the cell culture plate. The cell culture plates were incubated for at least two hours at 37° C., the excess solution was removed by suction-filtration and the recesses were each washed twice with PBS. The coated cell culture plates were stored with excess PBS which was not removed until just before the feeding of the cells.
The vertebral column was removed from decapitated rats and placed immediately into cold HBSS buffer (Hank's buffered saline solution, Gibco Invitrogen GmbH, Karlsruhe, Germany), i.e. buffer located in an ice bath, mixed with 1% by volume (percent by volume) of an AA solution (antibiotic/antimyotic solution, PAA, Pasching, Austria). The vertebral column was cut longitudinally and removed together with fasciae from the vertebral canal. Subsequently, the dorsal root ganglia (DRG) were removed and again stored in cold HBSS buffer mixed with 1% by volume of an AA solution. The DRG, from which all blood remnants and spinal nerves had been removed, were transferred in each case to 500 μL of cold type 2 collagenase (PAA, Pasching, Austria) and incubated for 35 minutes at 37° C. After the addition of 2.5% by volume of trypsin (PAA, Pasching, Austria), incubation was continued for 10 minutes at 37° C. After complete incubation, the enzyme solution was carefully pipetted off and 500 μL of complete medium were added to each of the remaining DRG. The DRG were in each case suspended several times, drawn through cannulae No. 1, No. 12 and No. 16 using a syringe and transferred to a 50 mL Falcon tube which was filled up to 15 mL with complete medium. The contents of each Falcon tube was in each case filtered through a 70 μm Falcon filter element and centrifuged for 10 minutes at 1,200 rpm and room temperature. The resulting pellet was in each case taken up in 250 μL of complete medium and the number of cells determined.
The number of cells in the suspension was set to 3×10^5 per mL and 150 μL of this suspension were in each case introduced into a recess in the cell culture plates coated as described hereinbefore. In the incubator the plates were left for two to three days at 37° C., 5% by volume of CO2 and 95% relative humidity. […]

VR1 (rat) [2] = target: T2, VR1 (rat); test: as above; conditions: against capsaicin (CAP)

T1 sequence (Q8NER1 whole entry): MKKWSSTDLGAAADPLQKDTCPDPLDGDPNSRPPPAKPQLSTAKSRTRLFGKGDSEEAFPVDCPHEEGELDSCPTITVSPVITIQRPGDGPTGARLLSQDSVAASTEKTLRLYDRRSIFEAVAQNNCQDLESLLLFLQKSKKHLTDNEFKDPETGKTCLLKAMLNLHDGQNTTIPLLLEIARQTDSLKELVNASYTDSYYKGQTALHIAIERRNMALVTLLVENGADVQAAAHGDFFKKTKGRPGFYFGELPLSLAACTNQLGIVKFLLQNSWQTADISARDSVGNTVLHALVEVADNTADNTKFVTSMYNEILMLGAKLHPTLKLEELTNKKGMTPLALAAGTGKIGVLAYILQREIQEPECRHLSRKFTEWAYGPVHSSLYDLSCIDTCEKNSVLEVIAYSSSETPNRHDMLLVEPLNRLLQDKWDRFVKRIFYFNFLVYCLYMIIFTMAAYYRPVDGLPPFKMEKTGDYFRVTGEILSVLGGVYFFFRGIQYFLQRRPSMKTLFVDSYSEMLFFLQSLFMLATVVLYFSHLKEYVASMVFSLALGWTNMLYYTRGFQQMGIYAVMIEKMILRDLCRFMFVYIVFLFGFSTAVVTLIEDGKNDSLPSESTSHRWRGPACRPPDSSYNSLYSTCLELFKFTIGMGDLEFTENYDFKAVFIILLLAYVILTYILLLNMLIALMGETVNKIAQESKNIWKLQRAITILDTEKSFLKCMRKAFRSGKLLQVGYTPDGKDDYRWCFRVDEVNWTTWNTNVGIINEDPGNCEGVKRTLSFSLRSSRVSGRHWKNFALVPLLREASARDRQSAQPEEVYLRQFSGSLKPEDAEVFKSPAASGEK
T2 sequence (O35433 whole entry): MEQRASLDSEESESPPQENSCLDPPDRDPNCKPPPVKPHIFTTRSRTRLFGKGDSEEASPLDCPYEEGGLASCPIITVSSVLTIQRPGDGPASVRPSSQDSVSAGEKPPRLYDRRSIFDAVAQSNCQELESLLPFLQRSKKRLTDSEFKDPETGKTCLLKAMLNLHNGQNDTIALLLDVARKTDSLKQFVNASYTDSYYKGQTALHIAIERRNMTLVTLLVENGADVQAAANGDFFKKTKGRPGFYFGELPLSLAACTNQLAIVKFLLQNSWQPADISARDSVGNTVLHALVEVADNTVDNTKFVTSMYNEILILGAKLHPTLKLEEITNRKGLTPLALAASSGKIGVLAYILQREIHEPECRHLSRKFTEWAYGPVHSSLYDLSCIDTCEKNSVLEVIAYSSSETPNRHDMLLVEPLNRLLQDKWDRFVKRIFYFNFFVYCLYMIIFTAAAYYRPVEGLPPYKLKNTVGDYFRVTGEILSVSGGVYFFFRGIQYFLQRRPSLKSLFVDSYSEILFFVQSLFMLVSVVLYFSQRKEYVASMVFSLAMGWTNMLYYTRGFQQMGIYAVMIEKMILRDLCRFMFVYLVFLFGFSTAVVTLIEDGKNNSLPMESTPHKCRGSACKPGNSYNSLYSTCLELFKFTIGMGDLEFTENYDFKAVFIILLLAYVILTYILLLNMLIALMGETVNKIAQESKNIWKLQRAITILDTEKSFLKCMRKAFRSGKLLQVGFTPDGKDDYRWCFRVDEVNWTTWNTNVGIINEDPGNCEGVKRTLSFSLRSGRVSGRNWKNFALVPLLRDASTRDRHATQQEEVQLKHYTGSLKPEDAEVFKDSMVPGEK

Compound	VR1 (human) (% inhibition compared to 10 μM CP) (VR1 (human))	VR1 (human) (% stimulation compared to 10 μM CP) (VR1 (human))	VR1 (rat) (% inhibition compared to 10 μM CP) (VR1 (rat) [1])	VR1 (rat) (% stimulation compared to 10 μM CP) (VR1 (rat) [1])	inhibition at 10 µM (VR1 (human))	activation at 10 µM (VR1 (human))	inhibition at 10 µM (VR1 (rat) [1])	activation at 10 µM (VR1 (rat) [1])	IC50 (VR1 (rat) [2])	Ki (VR1 (rat) [2])
((5R,8R)-8-tert-butyl-1-oxa-2-azaspiro[4.5]dec-2-en-3-yl)(4-(3-chloropyridin-2-yl)-2,6-dimethylpiperazin-1-yl)methanone [Example 58]	67%	27%	107%	46%						
CC(C)(C)[C@H]1CC[C@]2(CC1)CC(C(=O)N1CCN(c3ncccc3C(F)(F)F)CC1)=NO2 [Example 8, trans-(8-tert-butyl-1-oxa-2-azaspiro[4.5]dec-2-en-3-yl)-[4-(3-trifluoromethylpyridin-2-yl)piperazin-1-yl]methanone]	20.73%	0.22%	97.15%	0.57%						
CC(C)(C)[C@H]1CC[C@]2(CC1)CC(C(=O)NCc1ccc(NS(C)(=O)=O)c(F)c1)=NO2 [Example 25, trans-8-tert-butyl-1-oxa-2-azaspiro[4.5]dec-2-ene-3-carboxylic acid-3-fluoro-4-methanesulphonylaminobenzylamide]					56.5%	0.16%	98.3%	1.04%		
CC(C)(C)C1CCC2(CC1)CC(C(=O)NCc1ccc(NS(C)(=O)=O)cc1)=NO2 (stereo not drawn) [Example 3, cis-8-tert-butyl-1-oxa-2-azaspiro[4.5]dec-2-ene-3-carboxylic acid-4-methanesulphonylaminobenzylamide]	80.10%	−1.29%	102.62%	0.10%						
CC(C)(C)C1CCC2(CC1)CC(C(=O)N1CCCN(c3ncccc3Cl)CC1)=NO2 (stereo not drawn) [Example 21, trans-(8-tert-butyl-1-oxa-2-azaspiro[4.5]dec-2-en-3-yl)-[4-(3-chloropyridin-2-yl)-[1,4]diazepan-1-yl]methanone]	6.75%	−0.05%	52.32%	0.37%						
CC(C)(C)[C@H]1CC[C@@]2(CC1)CC(C(=O)N1CCN(c3nsnc3Cl)CC1)=NO2 [Example 17, cis-(8-tert-butyl-1-oxa-2-azaspiro[4.5]dec-2-en-3-yl)-[4-(4-chloro-[1,2,5]thiadiazol-3-yl)piperazin-1-yl]methanone]	14.95%	−0.05%	58.92%	0.33%						
COc1cc2c(cc1OC)CN(C(=O)C1=NO[C@]3(CC[C@H](C(C)(C)C)CC3)C1)CC2 [Example 18, trans-(8-tert-butyl-1-oxa-2-azaspiro[4.5]dec-2-en-3-yl)-(6,7-dimethoxy-3,4-dihydro-1H-isoquinolin-2-yl)methanone]	22.05%	24.24%	97.62%	84.04%						
CC(C)(C)C1CCC2(CC1)CC(C(=O)Nc1cccc3cnccc13)=NO2 (stereo not drawn) [Example 4, 8-tert-butyl-1-oxa-2-azaspiro[4.5]dec-2-ene-3-carboxylic acid isoquinolin-5-ylamide]					76.3%	-0.33%	73.7%	-0.54%		
CC(C)(C)[C@H]1CC[C@@]2(CC1)CC(C(=O)N1CCN(c3ccc(O)cc3)CC1)=NO2 [Example 11, cis-(8-tert-butyl-1-oxa-2-azaspiro[4.5]dec-2-en-3-yl)-[4-(4-hydroxyphenyl)piperazin-1-yl]methanone]	28.56%	−0.05%	62.42%	−0.37%						

The remaining lines, values ahead:

VR1 (human) (% inhibition compared to 10 μM CP) (VR1 (human))	VR1 (human) (% stimulation compared to 10 μM CP) (VR1 (human))	VR1 (rat) (% inhibition compared to 10 μM CP) (VR1 (rat) [1])	VR1 (rat) (% stimulation compared to 10 μM CP) (VR1 (rat) [1])	inhibition at 10 µM (VR1 (human))	activation at 10 µM (VR1 (human))	inhibition at 10 µM (VR1 (rat) [1])	activation at 10 µM (VR1 (rat) [1])	IC50 (VR1 (rat) [2])	Ki (VR1 (rat) [2])	Compound
25%	17%	91%	73%							CC(C)(C)c1ccc(NC(=O)[C@H]2CC[C@@]3(CC2)CC(c2ccccc2)=NO3)cc1 [Example 51, 3-phenyl-1-oxa-2-azaspiro[4.5]dec-2-ene-8-carboxylic acid-cis-(4-tert-butylphenyl)amide]
				64%	15%	97%	60%	0.545 µM	0.0637 µM	CC(C)(C)c1ccc(NC(=O)C2CCC3(CC2)CC(c2ccccc2)=NO3)cc1 (stereo not drawn) [Example 50, 3-phenyl-1-oxa-2-azaspiro[4.5]dec-2-ene-8-carboxylic acid-(4-tert-butylphenyl)amide]
				34%	36%	100%	43%			CC(C)(C)C1CCC2(CC1)CC(C(=O)Nc1ccc(NS(C)(=O)=O)c(F)c1)=NO2 (stereo not drawn) [Example 90, 8-tert-butyl-N-(3-fluoro-4-(methylsulphonamido)phenyl)-1-oxa-2-azaspiro[4.5]dec-2-ene-3-carboxamide]
				54%	53%	101%	87%			COc1cccc(C2=NOC3(CCC(C(=O)Nc4ccc(C(C)(C)C)cc4)CC3)C2)c1 (stereo not drawn) [Example 66, N-(4-tert-butylphenyl)-3-(3-methoxyphenyl)-1-oxa-2-azaspiro[4.5]dec-2-ene-8-carboxamide]
